Reference: patent publication US11166460B2, “α-amino acrylate microbicide, and preparation method therefor and uses thereof” (priority 2017, dated 2021)
Converted amounts (≈) assume the structure as drawn. Read-outs that look alike come from different tables or passages of the source.

How the values were obtained:
Botrytis cinerea = assay: Fungicidal activity, fungi growth rate method, BC; type: cell-based; conditions: Botrytis cinerea, 50 μg/mL
[1] = tested on: tobacco mosaic virus (TMV); assay: Anti-TMV inactivation activity (inactivation mode), compound mixed with TMV before inoculation of tobacco leaves; type: in vivo; conditions: Tobacco mosaic virus, read-out: Anti-TMV activity, Inactivation effect (inhibition)
Rhizoctonia cerealis = assay: Fungicidal activity, fungi growth rate method, RC; type: cell-based; conditions: Ceratobasidium cereale; 50 μg/mL; read-out: Fungicidal activity, inhibition, RC
Pellicularia sasakii = assay: Fungicidal activity, fungi growth rate method, PS; type: cell-based; conditions: 50 μg/mL; read-out: Fungicidal activity, inhibition, PS
[2] = tested on: tobacco mosaic virus (TMV); assay: Anti-TMV curative activity (treatment mode), live friction inoculation on tobacco seedlings; type: in vivo; conditions: for inhibition at 100 µg/mL: Tobacco mosaic virus, read-out: Anti-TMV activity, Curative effect (inhibition), 100 μg/mL, tobacco seedlings, checked on seventh day
[3] = tested on: tobacco mosaic virus (TMV); assay: Anti-TMV inducing activity (induction mode), tobacco seedlings; type: in vivo; conditions: Tobacco mosaic virus, read-out: Anti-TMV activity, Induction effect (inhibition), 100 μg/mL, tobacco seedlings
Alternaria solani = assay: Fungicidal activity, fungi growth rate method, AS; type: cell-based; conditions: Alternaria solani; 50 μg/mL; read-out: Fungicidal activity, inhibition, AS
Sclerotinia sclerotiorum = assay: microbe, parasite or virus in culture; type: cell-based; conditions: Sclerotinia sclerotiorum; for inhibition at 50 µg/mL: 50 μg/mL
[4] = tested on: tobacco mosaic virus (TMV); assay: Anti-TMV protective activity (protection mode), live friction inoculation on tobacco seedlings; type: in vivo; conditions: Tobacco mosaic virus, read-out: Anti-TMV activity, Protection effect (inhibition)
Cercospora arachidicola = assay: Fungicidal activity, fungi growth rate method, CA; type: cell-based; conditions: Mycosphaerella arachidis; 50 μg/mL; read-out: Fungicidal activity, inhibition, CA
wheat Gibberella zeae = assay: microbe, parasite or virus in culture; type: cell-based; conditions: Fusarium graminearum, read-out: Fungicidal activity, inhibition, GZ
[5] = tested on: Phytophthora infestans (Mont) de Bary; assay: microbe, parasite or virus in culture; type: cell-based; conditions: Phytophthora infestans, read-out: Fungicidal activity, inhibition, PI
Physalospora piricola = assay: Fungicidal activity, fungi growth rate method, PP; type: cell-based; conditions: 50 μg/mL; read-out: Fungicidal activity, inhibition, PP
[6] = read-out: Fungicidal activity, inhibition, BC
[7] = read-out: Fungicidal activity (inhibition) against SS: Sclerotinia sclerotiorum
[8] = read-out: Fungicidal activity, inhibition, SS

| SMILES | inhibition at 50 µg/mL (Botrytis cinerea; [6]) [%] | inhibition at 100 µg/mL [1] [%] | inhibition at 50 µg/mL (Rhizoctonia cerealis) [%] | inhibition at 50 µg/mL (Pellicularia sasakii) [%] | inhibition at 100 µg/mL [2] [%] | melting point [°C] | inhibition at 100 µg/mL [3] [%] | inhibition at 50 µg/mL (Alternaria solani) [%] | inhibition at 50 µg/mL (Sclerotinia sclerotiorum; [7]) [%] | inhibition at 50 µg/mL (Sclerotinia sclerotiorum; [8]) [%] | inhibition at 100 µg/mL [4] [%] | inhibition at 50 µg/mL (Cercospora arachidicola) [%] | inhibition at 50 µg/mL (wheat Gibberella zeae) [%] | inhibition at 50 µg/mL [5] [%] | inhibition at 50 µg/mL (Physalospora piricola) [%] | inhibition at 50 µg/mL (Botrytis cinerea; read-out: Fungicidal activity (inhibition) against BC: Botrytis cinerea) [%] | EC90 (Sclerotinia sclerotiorum; read-out: EC90 against S. sclerotiorum in vitro) [µg/mL] | Anti-TMV activity, Curative effect (inhibition) ([2]; 100 μg/mL, tobacco seedlings, checked on seventh day) [%] |
| --- | --- | --- | --- | --- | --- | --- | --- | --- | --- | --- | --- | --- | --- | --- | --- | --- | --- | --- |
| O=C(NCc1ccc(Br)cc1)/C(=C/c1ccccc1)NC(=O)C1CC1 [Compound 59, N-[(1Z)-2-phenyl-1-[[(4-bromophenylmethyl)amino]carbonyl]ethenyl]cyclopropanecarboxamide] | 18 | 39 | 24 | 19 | 80 | 187 to 189 | 26 | 16 | 60 to 80 | 75 | 41 | 22 | 16 | 10 | 8 | – | – | – |
| O=C(NCc1ccc(F)cc1)/C(=C/c1ccccc1)NC(=O)c1ccccc1 [Compound 55, N-[(1Z)-2-phenyl-1-[[(4-fluorophenylmethyl)amino]carbonyl]ethenyl]benzamide] | 12 | 59 | 12 | 12 | 45 | 199 to 201 | 4 | 28 | 60 to 80 | 75 | 0 | 10 | 34 | 19 | 21 | – | – | – |
| O=C(NC(Cc1ccccc1)C(=O)N1CCC(O)(c2ccc(Br)cc2)CC1)C1CC1 (stereo not shown) [Compound 49, N-[1-[[4-(4-bromophenyl)-4-hydroxy-1-piperidinyl]carbonyl]-2-phenylethyl]cyclopropanecarboxamide] | 15 | 31 | 18 | 14 | 29 | 101 to 103 | 21 | 28 | – | 50 | 41 | 12 | 43 | 11 | 6 | – | – | – |
| CNC(=O)/C(=C/c1csc(C2CCN(C(=O)OC(C)(C)C)CC2)n1)NC(=O)c1ccccc1 [Compound 41, (Z)-N-[1-[(methylamino)carbonyl]-2-[4-[2-[4-(1-Boc-piperidine)]thiazol]]ethenyl]benzamide] | 52 | 0 | 33 | 33 | 0 | 107 to 109 | 2 | 54 | – | 96 | 30 | 35 | 34 | 39 | 37 | 52 | 375 (≈ 796 µM) | – |
| O=C(N/C(=C\c1ccccc1)C(=O)N1CCC(O)(c2ccc(Br)cc2)CC1)C1CC1 [Compound 1, (Z)-N-[1-[[4-(4-bromophenyl)-4-hydroxy-1-piperidinyl]carbonyl]-2-phenylethenyl]cyclopropanecarboxamide] | 21 | 83 | 29 | 14 | 53 | 163 to 164 | 11 | 21 | 80 to 95 | 83 | 48 | 16 | 26 | 27 | 10 | – | – | 54 |
